Test results: patent publication US9682060B2, “Small molecules that induce intrinsic pathway apoptosis” (The Board of Trustees of the University of Illinois, priority 2015, dated 2017)
“Also recorded” adds a separate entry of the source.

Assays:
[1] = target: T1, recombinant procaspase-3 (Homo sapiens, UniProt P42574); experiment: In vitro activation of procaspase-3; assay type: biochemical; conditions: up to 100 μM; 250 nM procaspase-3; Ac-DEVD-AFC cleavage
T1 construct: His tag (inferred from the nickel-NTA purification); made in house
Experimental: In Vitro Activation of Procaspase-3.
Procaspase-3 was expressed as described previously and purified with Qiagen nickel-NTA resin (Hsu et al., 2012). Increasing concentrations of Raptinal (0, 10, 25, 50 and 100 μM) and 25 μM 1541B were assessed for their capacity to enhance the activity of procaspase-3 over time. 250 nM procaspase-3 was treated with compounds in caspase activity buffer (50 mM HEPES, 50 mM KCl, 0.1 mM EDTA, 10 mM DTT, 0.01% Triton X-100, pH 7.4) and activity was assessed by cleavage of Ac-DEVD-AFC (50 μM) at designated time points.

[2] = test system: caspase-3/-7; experiment: Caspase activity assay in cell lysate (Ac-DEVD-AFC); assay type: cell-based; conditions: 10 μM
[3] = test system: U-937 cells; experiment: Immunoblotting of caspase activation and PARP-1 cleavage; assay type: cell-based, Human; conditions: 10 μM
Experimental: U-937 cells (3×10^6 cells in 2 mL RPMI) or SKW 6.4 cells (5×10^6 cells in 2 mL RPMI) were treated with compound (1% final DMSO v/v) for the appropriate period of time. After centrifugation and washing with PBS, cells were lysed with RIPA lysis buffer containing protease cocktail inhibitor III (Calbiochem) and cell debris removed by centrifugation (16000×g 5 min). The lysate concentrations were normalized after determination of protein concentration by the Bradford assay and whole cell lysate (40-60 μg) was resolved by 4-20% gradient SDS-PAGE gel electrophoresis at 120 V for 70 min after which proteins were transferred onto PVDF membranes (60 V for 2 hours) and blocked in 5% BSA or fat-free milk in TBST (as per primary antibody manufacturer's instructions) overnight at 4° C. The membranes were blotted for molecules of interest with primary antibody (1:1000 in 5% BSA or milk in TBST) overnight at 4° C. The bound primary antibodies were detected using appropriate secondary HRP conjugated antibodies (1:5000 in TBST) for 1 hour at room temperature and visualized by ECL autoradiography or with an Image Quant LAS 4010. The membranes were stripped in acidic methanol, blocked and re-probed as necessary.
Induction of Necroptosis and Observation of Phospho-MLKL by Immunoblot.
[…]. Cells were then treated with TNFα (10 ng/ml) in the presence of cycloheximide (20 μg/ml) for (1% final DMSO v/v) for the appropriate period of time. After centrifugation and washing with PBS, cells were lysed with RIPA lysis buffer containing protease cocktail inhibitor III (Calbiochem) and Phosphatase Inhibitor IV (BioVision). Samples were further processed for immunblot analysis as described above.

[4] = test system: HFF-1; experiment: Raptinal toxicity in various cell lines, 24 hour IC50; assay type: cell-based; conditions: HFF-1 (Human Foreskin Fibroblast); 24 hour incubation; mean ± SD
[5] = test system: U-937 cells; experiment: Annexin V/PI cell viability analysis; conditions: U-937 cells; 10 μM; time course AV/PI, based on data in FIG. 1F
[6] = test system: U-937 cells; assay type: cell-based, Human; conditions: 20 minute treatment, dihydroethidium, flow cytometry
Experimental: Measurement of Cellular ROS Production.
U-937 cells (1 mL of 5×10^5 cells/mL) in Hank's buffered salt solution (HBSS) containing 5 mM glucose were treated with DMSO, 2 or 10 μM Raptinal, 10 μM thapsigargin, 100 μM etoposide (1% DMSO final) and incubated in the presence of 5 μM dihydroethidium a 37° C., 5% CO2 incubator for 20 minutes. […]. The levels of ethidium were assessed by flow cytometry. Live cells were analyzed based on gating on the forward and side scatter properties and the geometric mean of ethidium staining was determined using the software FCS Express.

[7] = test system: zebrafish embryos; experiment: Apoptosis in zebrafish (secretory annexin V-YFP); assay type: in vivo; conditions: transgenic embryos 24 hours post fertilization; 10 μM for 1.5 hours
Experimental: Zebrafish experiments were performed as described (van Ham et al., 2010). TuAB zebrafish embryos were used for all experiments and were incubated at 28° C. in HEPES-buffered E3 zebrafish medium (pH 7.2) in the dark. Chemical treatments (10 μM Raptinal or vehicle, 1% v/v final DMSO) were performed in multi-well plates in buffered E3 medium. Images were taken using an AxioCam MRc camera and AxioVision 4.8 software (Zeiss). To quantify apoptosis, the number of secA5-YFP+ apoptotic cells was counted manually in embryos using a fluorescence dissection stereomicroscope (Discovery V8; Zeiss, Germany).

[8] = test system: 4T1 breast cancer; experiment: Syngeneic subcutaneous tumor model; assay type: in vivo, BALB/c mice; conditions: 4T1 model; 20 mg/kg IP once daily for 4 days
Experimental: All animal studies were performed with prior approval by the University of Illinois at Urbana-Champaign IACUC committee. […]. Seven days (for B16-F10) and six days (for 4T1) after inoculation, the mice were randomized based upon tumor size with 7 mice per group. Vehicle or compound was administered intraperitoneally as a corn oil DMSO suspension (300 μL of 10% DMSO in trans fat-free corn oil, 20 mg/kg) once daily for 3 consecutive days for B16-F10 and 4 consecutive days for 4T1 models. Tumor measurements were performed every other day using a caliper and tumor volume was calculated using the equation (0.5×l×w^2).

[9] = test system: Jurkat; experiment: Raptinal toxicity, 24 hour IC50 (MTS assay for suspension cells); assay type: cell-based; conditions: Jurkat (Human Leukemia); 24 hour incubation; mean ± SD
Experimental: (§1) MTS Assay for Suspension Cells.
(§2) Serial dilutions of compound in 100% DMSO were added in triplicate (2 μL to each well) to empty wells of a 96-well plate. Suspension cells (HL-60, U-937, SKW 6.4, Jurkat W T, Jurkat CASP8^−/−, Jurkat FADD^−/−, Jurkat Bcl-2) cells in RPMI 1640 media were added to 96-well plates (198 μL containing 4×10^4 cells) and the cells incubated for 24 hours.

[10] = test system: SKW 6.4; experiment: as above; assay type: cell-based; conditions: SKW 6.4 (Human Lymphoma); 24 hour incubation; mean ± SD
Experimental: as §1, §2

[11] = test system: HL-60; experiment: as above; assay type: cell-based; conditions: HL-60 (Human Leukemia); 24 hour incubation; mean ± SD
Experimental: as §1, §2

[12] = assay type: in vivo, C57BL/6 mice; conditions: mice; single-dose intravenous 15-60 mg/kg
Experimental: Pharmacokinetics and Toxicity Profiling in Mice.
All animal studies were performed with prior approval by the University of Illinois at Urbana-Champaign IACUC committee. Eight week old female C57BL/6 mice were used for all pharmacokinetic and toxicity experiments. […]. For toxicity assessment, Raptinal was administered intravenously as a single-dose injection across a dose range of 15-60 mg/kg, and mice were sacrificed 7 days post-injection for evidence of hematologic toxicity (n=3 mice/group).

T1 sequence (P42574 whole entry): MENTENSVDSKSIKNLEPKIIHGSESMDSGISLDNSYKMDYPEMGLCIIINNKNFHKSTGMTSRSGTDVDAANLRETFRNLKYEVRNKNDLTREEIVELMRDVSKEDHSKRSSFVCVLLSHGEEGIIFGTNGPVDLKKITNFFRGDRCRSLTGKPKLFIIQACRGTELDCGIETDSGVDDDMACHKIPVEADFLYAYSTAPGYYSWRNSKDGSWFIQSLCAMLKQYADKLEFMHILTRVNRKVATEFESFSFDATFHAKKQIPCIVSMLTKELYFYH

O=CC1(C2(C=O)c3ccccc3-c3ccccc32)c2ccccc2-c2ccccc21 [Raptinal, [9,9′]bifluorenyl-9,9′-dicarbaldehyde]
direct activation of recombinant procaspase-3 (enzymatic activity) [1]: does not directly activate; also recorded: no increase in enzymatic activity | induction of caspase-3/-7 activity compared to other apoptosis inducing agents [2]: faster induction of caspase-3/-7 activity and higher peak levels | time of activation of initiator caspase-9 [3]: 20 min | time to complete cleavage of procaspase-9, procaspase-8 and procaspase-3 [3]: ≤ 45 min | cleavage of procaspase-1 (pyroptosis/pyronecrosis) ([3]; Western blot): neither | activation of procaspase-3 to caspase-3 (immunoblot) ([3]; one hour treatment): complete activation | cleavage of PARP-1 (116 to 89 kDa form) ([3]; one hour, versus the other toxins): Significantly more abundant cleavage | IC50 [4]: 3300 ± 200 nM | Time to 50% death [5]: 1.5 h | production of reactive oxygen species (superoxide anion radicals) [6]: rapid accumulation of superoxide anion radicals; also recorded: observed | apoptotic cells [7]: 80 cells per fish | growth inhibition [8]: 50% | IC50 [9]: 2700 ± 900 nM | IC50 [10]: 1100 ± 100 nM | IC50 [11]: 2100 ± 1400 nM | tolerability [12]: well tolerated
